For experiment [1], the target named is T1, YTHDF1 mutant F480A (Homo sapiens, UniProt Q9BYJ9, F480A).
T1 construct: GST (N, cleaved yes); made in house; host or cells: E. coli BL21 (DE3)
In words: FP assay with YTHDF1 mutant F480A. It is filed as binding. On the procedure: The protein YTHDF1 (361-559) (SEQ ID NO: 2) and its mutants (SEQ ID NOs: 4-13) were cloned into pGEx-6P-1 vector (obtained from YouBio Co, Ltd, Catalog NO: VT1258), and the His-YTHDF1 (361-559) (SEQ ID NO: 3) used in AlphaScreen Assay was cloned into modified pET28a vector (obtained from YouBio Co, Ltd, Catalog NO: VT1207). The vectors were transformed into E. coli BL21 (DE3) cells and cultured at 37° C. When OD value reached 0.6˜0.8, 1 mM Isopropyl-β-D-thiogalactopyranoside was added to overexpress the protein at 16° C. overnight. […] Then, the proteins were further purified via cation exchange (HiTrap SP, GE Healthcare) and finally through a Superdex 75 10/300 column (GE Healthcare). At last, the purified YTHDF1(361-559) and the mutants were kept in buffer which contains 20 mM Hepes (pH 7.4) and 200 mM NaCl. For His-YTHDF1 (361-559), the protein was purified via Ni-NTA chromatography (HisTrap FF, GE Healthcare), followed by cation exchange and Superdex 75 10/300 column in sequence. And the obtained protein was kept in the buffer with the same ingredients.
All of the YTHDF1 (361-559), the 5′-FAM labeled m^6A-containing mRNA (5′-FAM-[…] (m^6A) CUGUG-3′, SEQ ID NO: 14) and the candidate compounds were diluted with assay buffer (20 mM Hepes (pH 7.4), 50 mM NaCl, 0.01% (v/v) tween 20, 5% (v/v) glycerol). […] At last, the mixtures were measured by Envision Readers (PerkinElmer). […]

In experiment [2] the test system is B16-OVA tumor. Briefly: B16-OVA tumor growth in Rag1-/- versus wild-type mice. The settings on record: 1×10^5 B16-OVA, 10 μM SAA day 7 to day 9. In kind it is in vivo, mouse. On the procedure: (§1) For B6 mice tumor growth, 5×10^5 B16-OVA or 1×10^6 E.G7-OVA tumor cells were inoculated subcutaneously (s.c.) into the flank of mice. Tumor length (a) and width (b) was measured every two days and tumor volume was calculated by the formula ab^2/2. For the inhibitor treatment, 10 μM SAA or DMSO was injected intraperitoneally (i.p.) on day 9 and 11 after tumor inoculation. For other mice model (rag1^−/− and Ythdf1 conditional knockout), times and dose of inhibitor treatment was the same. For α-PD-L1 and SAA combination treatment, 5×10^5 B16-OVA tumor cells were inoculated subcutaneously into the flank of mice. 100 μg α-PD-L1 antibody (clone 10F.9G2) or rat immunoglobulin were administered at day 9 after tumor inoculation. 10 μM SAA or DMSO was administered in the same way on day 9 and 11 after tumor injection.
T/B cell-deficient Rag1^−/− mice were inoculated with 1×10^5 B16-OVA cells, and 10 μM SAA was then injected to each mouse from day 7 to day 9, and tumor growth was monitored, wild type mice were used as control group.

Experiment [3] concerns FLT3L-DCs. Briefly: FLT3L-DC direct-priming of OT-I T cells in vitro with OT-I peptide. The settings on record: 1 μg/mL OT-I peptide. In kind it is cell-based, mouse. As to the method:
Then antigen-obtained DCs were purified and co-cultured with naïve T cells from OT-1 mice at a ratio of 1:10 for 96 h. The co-culture medium was 1640 RPMI contains 10% fetal bovine with or without 1 μg/mL OT-1 (OVA 257-264) peptide. For ex vivo DCs cross-presentation assay, four types of DCs (migration CD11b DC, migration CD103′ DC, resident CD11b DC and resident CD8^+ DC) were sorted in draining lymph node from SAA treated B16-OVA bearing mice at day 12. These DCs were co-cultured with OT-1 naïve T cells in the ratio of 1:10 for 96 hours with or without OT-1 peptide. Supernatant IFN-γ production was detected via CBA assay.
Dendritic cells can activate T cells through cross-priming and/or direct-priming. In direct-priming process, DCs could stimulate T cells via surface co-stimulatory molecules such as CD80/CD86 or cytokines related with T cell activation. To evaluate whether the direct priming function was also affected after SAA administration, bone marrow derived cells (wildtype or Ythdf1 gene deficient) were cultured with FLT3L for 9 days to get FLT3L-DC and these DCs were treated with 10 μM SAA for 12 hours, then, FLT3L-DCs were co-cultured with necrotic B16-OVA tumor cell for 6 hours. […] IFN-γ production was assessed by IFN-γ cytometric bead array. […] Then, IFN-γ production was assessed by IFN-γ cytometric bead array.

For experiment [4], the system named is B16-OVA tumor. In words: B16-OVA tumor growth, SAA with anti-PD-L1 antibody. It is filed as in vivo, mouse. The settings on record: 5×10^5 B16-OVA; 10 μM SAA day 9 and 11; 100 ug anti-PD-L1 antibody day 9. On the procedure:
as §1
Wild-type mice were injected subcutaneously with 5×10^5 B16-OVA cells. 10 μM SAA was injected to each mouse on day 9 and day 11. Mice were also treated with 100 ug anti-PD-L1 antibody on day 9. Tumor growth was monitored over time.

T1 sequence (Q9BYJ9 with tags, fused parts or gaps F480A): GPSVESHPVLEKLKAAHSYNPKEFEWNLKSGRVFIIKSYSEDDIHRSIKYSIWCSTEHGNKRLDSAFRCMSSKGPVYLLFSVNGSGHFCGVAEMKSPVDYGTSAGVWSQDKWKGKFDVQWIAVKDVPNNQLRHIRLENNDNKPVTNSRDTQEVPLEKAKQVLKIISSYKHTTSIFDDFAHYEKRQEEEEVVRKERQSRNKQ

As for `O=C(/C=C/c1ccc(O)c(O)c1/C=C/c1ccc(O)c(O)c1)O[C@H](Cc1ccc(O)c(O)c1)C(=O)O` [SAA, Salvianolic Acid A], in experiment [1], the “inhibitory activity against mutant binding to m6A versus wildtype” value was “significantly weaker than that against wildtype YTHDF1”. Moreover, the tumor growth entry in experiment [2] is recorded as “tumor growth was arrested”. Besides, the “FLT3L-DC direct-priming function (IFN-γ production)” value in experiment [3] is “could not enhance”. In experiment [4], the B16-OVA tumor growth entry is on record as “partially inhibit”.

Source of the values: patent US20240033244A1, “COMPOSITIONS AND METHODS FOR INHIBITING YTHDF1” (SHANGHAI INSTITUTE OF MATERIA MEDICA, CHINESE ACADEMY OF …, priority 2020, published 2024).
